Source: patent US20070244155A1 (AMGEN INC., priority 2006, published 2007)

Biological target: T1, human GPR40 (Homo sapiens, UniProt O14842)
T1 construct: expressed in transfected cells; host or cells: CHO cells
Assay: Cell-based aequorin assay using human GPR40
Settings: CHO cells transfected with GPR40 and aequorin expression vectors; aequorin luminescence; activation of human GPR40; read-out: Relative EC50
Method: A cell-based aequorin assay may be employed to characterize the modulatory activity of compounds on the GPR40 signaling pathway. In an exemplary assay, CHO cells are transfected in a 15 cm plated containing 14 million cells with 5 μg of GPR40 expression vector and 5 μg of Aequorin expression vector (Euroscreen) using Lipofectamine 2000 (Invitrogen). After 17-24 hours post-transfection, cells are washed with phosphate buffered saline (PBS) and detached from the tissue culture dish with 2 mL of trypsin (0.25%(w/v)). Trypsinization is halted with 28 mL of Hanks Buffered Salt Solution containing 20 mM Hepes (H/HBSS) and 0.01% fatty acid-free bovine serum albumin (BSA) or 0.625% fatty acid-free human serum albumin (HSA). Coelantrazine is added to 1 ug/mL and the cells are incubated for 2 hours at room temperature. Cells are gently mixed every 15 minutes. Compounds are dissolved in dimethyl sulfoxide for preparation of 10 mM stock solutions. Compounds are diluted in H/HBSS containing either 0.01% BSA or 0.625% HSA. Serial dilutions of the test compounds are prepared to determine dose response. Aequorin luminescence measurements are made using an EG&G Berthold 96-well luminometer and the response is measured over a 20 second interval after cells and compounds are mixed. The area-under-curve from 2-20 seconds is plotted to determine dose response. The EC50 (effective concentration to reach 50% maximal response) is determined from the dose response plot. Table 1 includes representative data (EC50 values) obtained for exemplary compounds of the invention for the relative activation of human GPR40. […] Therefore, in some embodiments, the invention provides any of the compounds listed in Table 1 individually or as members of a group and pharmaceutically acceptable salts, esters, solvates, tautomers, stereoisomers, and/or prodrugs thereof.

T1 sequence (O14842 whole entry): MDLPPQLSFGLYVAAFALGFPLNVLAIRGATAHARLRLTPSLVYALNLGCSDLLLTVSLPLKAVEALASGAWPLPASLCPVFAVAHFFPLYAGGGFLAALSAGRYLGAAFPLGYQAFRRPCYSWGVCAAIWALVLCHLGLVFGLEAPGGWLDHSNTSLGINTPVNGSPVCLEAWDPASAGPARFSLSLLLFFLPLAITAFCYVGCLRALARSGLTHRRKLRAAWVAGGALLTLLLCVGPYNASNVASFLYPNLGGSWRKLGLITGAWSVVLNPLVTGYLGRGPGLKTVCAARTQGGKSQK

Compound	EC50
CC1CCc2cc(OCc3cccc(-c4ccc(C(F)(F)F)cc4)c3)ccc2C1CC(=O)O (mixture of isomers) [Example 22]	1000 to 10000 nM
CCCCOc1ccc(C)cc1-c1ccc(COc2ccc3c(c2)CCC(C)C3CC(=O)O)cc1 (mixture of isomers) [Example 23]	1000 to 10000 nM
Cc1ccc(-c2nc(C)c(COc3ccc4c(c3)CCC(C)C4CC(=O)O)s2)cc1 (mixture of isomers) [Example 24]	1000 to 10000 nM
CCCCOc1ccc(C)cc1-c1ccc(COc2ccc3c(c2)CC(C)C3CC(=O)O)cc1 (mixture of isomers) [Example 25]	1000 to 10000 nM
CCOc1ccccc1-c1ccc(COc2ccc3c(c2)CC(C)C3CC(=O)O)cc1 (mixture of isomers) [Example 27]	1000 to 10000 nM
Cc1ccc(-c2nc(C)c(COc3ccc4c(c3)CC(C)C4CC(=O)O)s2)cc1 (mixture of isomers) [Example 28]	1000 to 10000 nM
CCCCOc1ccc(C)cc1-c1ccc(COc2ccc3c(c2)CCCC3CC(=O)O)cc1 (racemic) [Example 1, (R/S)-[6-(2′-Butoxy-5′-methyl-biphenyl-4-ylmethoxy)-1,2,3,4-tetrahydro-naphthalen-1-yl]-acetic acid]	100 to 1000 nM
CCCCOc1ccc(C)cc1-c1ccc(COc2ccc3c(c2)CCC3CC(=O)O)cc1 (racemic) [Example 11, (R/S)-[5-(2′-Butoxy-5′-methyl-biphenyl-4-ylmethoxy)-indan-1-yl]-acetic acid]	100 to 1000 nM
CCCCOc1ccc(C)cc1-c1ccc(COc2ccc3c(c2)CCC(C(=O)O)C3)cc1 (racemic) [Example 29, (R/S)-6-(2′-Butoxy-5′-methyl-biphenyl-4-ylmethoxy)-1,2,3,4-tetrahydro-naphthalene-2-carboxylic acid]	100 to 1000 nM
C=C1COc2cc(OCc3ccc(-c4cc(C)ccc4OCCCC)cc3)ccc2C1CC(=O)O (racemic) [Example 35]	100 to 1000 nM
CCCCOc1ccc(C)cc1-c1ccc(COc2ccc3c(c2)OCC(=C(C)C)C3CC(=O)O)cc1 (racemic) [Example 39]	100 to 1000 nM
C=C1CCOc2cc(OCc3ccccc3)ccc2C1CC(=O)O (racemic) [Example 43, (R/S)-2-(8-(benzyloxy)-4-methylene-2,3,4,5-tetrahydrobenzo[b]oxepin-5-yl)acetic acid]	100 to 1000 nM
C=C(c1ccc(-c2ccccc2)cc1)c1ccc2c(c1)CCCC2CC(=O)O (racemic) [Example 44, (R/S)-[6-(1-Biphenyl-4-yl-vinyl)-1,2,3,4-tetrahydro-naphthalen-1-yl]-acetic acid]	1000 to 10000 nM
Cc1cc(Cl)ccc1-c1cccc(COc2ccc3c(c2)C(=O)NC3CC(=O)O)c1 (racemic) [Example 66, (R/S)-(5-(((4′-chloro-2′-methyl-1,1′-biphenyl-3-yl)methyl)oxy)-3-oxo-2,3-dihydro-1H-isoindol-1-yl)acetic acid]	1000 to 10000 nM
Cc1cc(Cl)ccc1-c1cccc(COc2ccc3c(c2)C(=O)N(C)C3CC(=O)O)c1 (racemic) [Example 67, (R/S)-(5-(((4′-chloro-2′-methyl-1,1′-biphenyl-3-yl)methyl)oxy)-2-methyl-3-oxo-2,3-dihydro-1H-isoindol-1-yl)acetic acid]	100 to 1000 nM
Cc1c(Cl)cccc1-c1cccc(COc2ccc3c(c2)C(=O)N(C)C3CC(=O)O)c1 (racemic) [Example 69, (R/S)-(5-(((3′-chloro-2′-methyl-1,1′-biphenyl-3-yl)methyl)oxy)-2-methyl-3-oxo-2,3-dihydro-1H-isoindol-1-yl)acetic acid]	100 to 1000 nM

Compound	EC50
CN1C(=O)c2cc(OCc3cccc(-c4ccc(C(F)(F)F)cc4)c3)ccc2C1CC(=O)O (racemic) [Example 70, (R/S)-(2-methyl-3-oxo-5-(((4′-(trifluoromethyl)-1,1′-biphenyl-3-yl)methyl)oxy)-2,3-dihydro-1H-isoindol-1-yl)acetic acid]	1000 to 10000 nM
O=C(O)CC1c2ccc(OCc3cccc(-c4ccc(C(F)(F)F)cc4)c3)cc2OCc2conc21 (racemic) [Example 71, (R/S)-(7-(((4′-(trifluoromethyl)-1,1′-biphenyl-3-yl)methyl)oxy)-4H,10H-[l]benzoxepino[4,3-c]isoxazol-10-yl)acetic acid]	1000 to 10000 nM
CCOc1ccc(F)c(-c2ccc(COc3ccc4c(c3)CCCC4CC(=O)O)cc2)c1 (stereo in doubt) [Example 60, (S)-[6-(5′-Ethoxy-2′-fluoro-biphenyl-4-ylmethoxy)-1,2,3,4-tetrahydro-naphthalen-1-yl]-acetic acid]	1000 to 10000 nM
CCOc1ccccc1-c1ccc(COc2ccc3c(c2)CCCC3CC(=O)O)cc1 (stereo not drawn) [Example 2, [6-(2′-Ethoxy-biphenyl-4-ylmethoxy)-1,2,3,4-tetrahydro-naphthalen-1-yl]-acetic acid]	100 to 1000 nM
O=C(O)C[C@@H]1CCCc2cc(OCc3cccc(-c4ccc(C(F)(F)F)cc4)c3)ccc21 [Example 3, [(S)-6(4′-Trifluoromethyl-biphenyl-3-ylmethoxy)-1,2,3,4-tetrahydro-naphthalen-1-yl]-acetic acid]	100 to 1000 nM
CCCCOc1ccc(C)cc1-c1ccc(COc2ccc3c(c2)CCC[C@H]3CC(=O)O)cc1 [Example 4]	< 100 nM
O=C(O)C[C@H]1CCCc2cc(OCc3cccc(-c4ccc(C(F)(F)F)cc4)c3)ccc21 [Example 6]	1000 to 10000 nM
Cc1ccc(-c2nc(C)c(COc3ccc4c(c3)CCCC4CC(=O)O)s2)cc1 (stereo not drawn) [Example 10]	100 to 1000 nM
O=C(O)CC1CCc2cc(OCc3cccc(-c4ccc(C(F)(F)F)cc4)c3)ccc21 (stereo not drawn) [Example 15]	1000 to 10000 nM
CCCCOc1ccc(C)cc1-c1ccc(COc2ccc3c(c2)C(CC(=O)O)CCC3)cc1 (stereo not drawn) [Example 18]	1000 to 10000 nM
O=C(O)CC1CCc2ccc(OCc3cccc(-c4ccc(C(F)(F)F)cc4)c3)cc2C1 (stereo not drawn) [Example 20]	1000 to 10000 nM
CCCCOc1ccc(C)cc1-c1ccc(COc2ccc3c(c2)CC(CC(=O)O)CC3)cc1 (stereo not drawn) [Example 21]	1000 to 10000 nM
O=C(O)C1CCc2cc(OCCOc3cccc(C(F)(F)F)c3)ccc2C1 (stereo not drawn) [Example 30]	1000 to 10000 nM
O=C(O)C1CCc2cc(OCc3cccc(-c4ccc(C(F)(F)F)cc4)c3)ccc2C1 (stereo not drawn) [Example 31]	1000 to 10000 nM
O=C(O)C(F)(F)C1CCCc2cc(OCc3cccc(-c4ccc(C(F)(F)F)cc4)c3)ccc21 (stereo not drawn) [Example 32, Difluoro-[6-(4′-trifluoromethyl-biphenyl-3-ylmethoxy)-1,2,3,4-tetrahydro-naphthalen-1-yl]-acetic acid]	1000 to 10000 nM
Cc1ccc(-c2nc(C)c(COc3ccc4c(c3)CCCC4C(F)(F)C(=O)O)s2)cc1 (stereo not drawn) [Example 33]	1000 to 10000 nM

Results, then the compound that gave them:

EC50	Compound
1000 to 10000 nM	CC1Cc2cc(OCc3cccc(-c4ccc(C(F)(F)F)cc4)c3)ccc2C1CC(=O)O (mixture of isomers) [Example 26]
100 to 1000 nM	CCCCOc1ccc(C)cc1-c1ccc(COc2ccc3c(c2)OCC(C)C3CC(=O)O)cc1 (racemic) [Example 40]
1000 to 10000 nM	C=C(c1ccc(Oc2ccccc2)cc1)c1ccc2c(c1)CCCC2CC(=O)O (racemic) [Example 45, (R/S)-{6-[1-(4-Phenoxy-phenyl)-vinyl]-1,2,3,4-tetrahydro-naphthalen-1-yl}-acetic acid]
1000 to 10000 nM	Cc1c(Cl)cccc1-c1cccc(COc2ccc3c(c2)C(=O)NC3CC(=O)O)c1 (racemic) [Example 68]
1000 to 10000 nM	CCOc1ccc(F)c(-c2ccc(COc3ccc4c(c3)CCC(C(=O)O)C4)cc2)c1 (racemic) [Example 72, (R/S)-6-(((5′-(ethoxy)-2′-fluoro-1,1′-biphenyl-4-yl)methyl)oxy)-1,2,3,4-tetrahydro-2-naphthalenecarboxylic acid]
< 100 nM	Cc1ccc(-c2nc(C)c(COc3ccc4c(c3)CCC[C@H]4CC(=O)O)s2)cc1 [Example 5]
< 100 nM	COc1cccc(-c2ccc(COc3ccc4c(c3)CCCC4CC(=O)O)cc2)c1 (stereo not drawn) [Example 7]
100 to 1000 nM	O=C(O)CC1CCCc2cc(OCc3cccc(-c4ccc(C(F)(F)F)cc4)c3)ccc21 (stereo not drawn) [Example 8]
1000 to 10000 nM	COc1ccc(COc2ccc3c(c2)CCCC3CC(=O)O)cc1 (stereo not drawn) [Example 9]
100 to 1000 nM	CCOc1ccccc1-c1ccc(COc2ccc3c(c2)CCC3CC(=O)O)cc1 (stereo not drawn) [Example 12]
100 to 1000 nM	COc1cccc(-c2ccc(COc3ccc4c(c3)CCC4CC(=O)O)cc2)c1 (stereo not drawn) [Example 13]
100 to 1000 nM	Cc1ccc(-c2nc(C)c(COc3ccc4c(c3)CCC4CC(=O)O)s2)cc1 (stereo not drawn) [Example 14]
1000 to 10000 nM	CCOc1cccc(-c2ccc(COc3ccc4c(c3)C(CC(=O)O)CCC4)cc2)c1 (stereo not drawn) [Example 16]
1000 to 10000 nM	Cc1ccc(-c2nc(C)c(COc3ccc4c(c3)C(CC(=O)O)CCC4)s2)cc1 (stereo not drawn) [Example 17]
1000 to 10000 nM	CCOc1ccccc1-c1ccc(COc2ccc3c(c2)C(CC(=O)O)CCC3)cc1 (stereo not drawn) [Example 19]
< 100 nM	C=C1COc2cc(OCc3sc(-c4ccc(C)cc4)nc3C)ccc2C1CC(=O)O (stereo not drawn) [Example 34, 2-(7-((4-methyl-2-p-tolylthiazol-5-yl)methoxy)-3-methylene-3,4-dihydro-2H-chromen-4-yl)acetic acid]
